Data set [1] is described as follows: in vivo. The conditions noted are these: rat, brain homogenate, po, 10 mg/kg.
A short description of data set [2]: in vivo. Particulars: rat, brain/plasma, po, 10 mg/kg.

The term Kp denotes tissue or fluid exposure divided by exposure in the circulation. As to `COc1nc(N2C[C@H]3C(=O)N(C)C(N)=N[C@@]3(c3c(F)ccc(F)c3F)C2)nc(C)c1F`, in data set [1], the concentration at 6 h was 88 nM. This compound also yielded a Kp at 6 h in data set [2] of 0.4.

The record behind these values is ChEMBL document CHEMBL3797133, “Structure-Based Design of an Iminoheterocyclic β-Site Amyloid Precursor Protein Cleaving Enzyme (BACE) Inhibitor that Lowers Central Aβ in Nonhuman Primates” (J Med Chem, 2016).
